# Key:
# Format in all cases: in vivo
# [1] = system: giant foxtail (Setaria faberii); assay: Test A pre-/postemergence plant response; settings: for Foxtail, Giant plant response rating: visual injury, 0 to 100 scale (0 no effect, 100 complete control), approx. ten days
# Outline: (§1)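 Both pre- and postemergence treatments are applied simultaneously, using chemicals formulated in a non-phytotoxic solvent mixture with surfactant. Postemergence plants are 2–10 cm high with one to two leaves. After approximately ten days in a greenhouse, injury is scored visually from 0 (none) to 100 (complete control) relative to untreated plants.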
# [2] = system: corn (Zea mays); assay: Test A pre-/postemergence plant response; settings: for Corn plant response rating: visual injury, 0 to 100 scale (0 no effect, 100 complete control), approx. ten days
# Outline: as §1
# [3] = system: velvetleaf (Abutilon theophrasti); assay: Test A pre-/postemergence plant response; settings: for Velvetleaf plant response rating: visual injury, 0 to 100 scale (0 no effect, 100 complete control), approx. ten days
# Outline: as §1
# [4] = system: large crabgrass (Digitaria sanguinalis); assay: Test A pre-/postemergence plant response; settings: for Crabgrass, Large plant response rating: visual injury, 0 to 100 scale (0 no effect, 100 complete control), approx. ten days
# Outline: as §1
# [5] = system: wheat (Triticum aestivum); assay: Test A pre-/postemergence plant response; settings: for Wheat plant response rating: visual injury, 0 to 100 scale (0 no effect, 100 complete control), approx. ten days
# Outline: as §1
# [6] = system: barnyardgrass (Echinochloa crus-galli); assay: Test A pre-/postemergence plant response; settings: for Barnyardgrass plant response rating: visual injury, 0 to 100 scale (0 no effect, 100 complete control), approx. ten days
# Outline: as §1
# [7] = system: pigweed (Amaranthus retroflexus); assay: Test A pre-/postemergence plant response; settings: for Pigweed plant response rating: visual injury, 0 to 100 scale (0 no effect, 100 complete control), approx. ten days
# Outline: as §1
# [8] = system: morningglory (Ipomoea spp.); assay: Test A pre-/postemergence plant response
# Outline: as §1
# [9] = system: rice (Oryza sativa); assay: Test B flooded paddy test; settings: for Plant response rating, Rice: Flood (flooded paddy test), 125 g ai/ha, scale 0 to 100, 0 is no effect, 100 is complete control, 13 to 15 days; for Rice plant response rating: Flood, 31 g ai/ha, scale 0 to 100 (0 no effect, 100 complete control)
# Outline: (§2)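 Rice, umbrella sedge, ducksalad and barnyardgrass were grown to the 2-leaf stage, flooded to 3 cm, and compound was applied directly to the paddy water, with that depth kept throughout. After 13 to 15 days in the greenhouse, plants were visually rated against controls on a 0 (no effect) to 100 (complete control) scale.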
# [10] = system: umbrella sedge (Cyperus difformis); assay: Test B flooded paddy test; settings: for Plant response rating, Sedge, Umbrella: Flood (flooded paddy test), 125 g ai/ha, scale 0 to 100, 0 is no effect, 100 is complete control, 13 to 15 days; for Sedge, Umbrella plant response rating: Flood, 31 g ai/ha, scale 0 to 100 (0 no effect, 100 complete control)
# Outline: as §2
# [11] = system: ducksalad (Heteranthera limosa); assay: Test B flooded paddy test; settings: for Plant response rating, Ducksalad: Flood (flooded paddy test), 125 g ai/ha, scale 0 to 100, 0 is no effect, 100 is complete control, 13 to 15 days; for Ducksalad plant response rating: Flood, 31 g ai/ha, scale 0 to 100 (0 no effect, 100 complete control)
# Outline: as §2
# [12] = system: barnyardgrass (Echinochloa crus-galli); assay: Test B flooded paddy test; settings: for Plant response rating, Barnyardgrass: Flood (flooded paddy test), 125 g ai/ha, scale 0 to 100, 0 is no effect, 100 is complete control, 13 to 15 days; for Barnyardgrass plant response rating: Flood, 31 g ai/ha, scale 0 to 100 (0 no effect, 100 complete control)
# Outline: as §2
# [13] = Postemergence, 125 g ai/ha, 0 to 100 scale where 0 is no effect and 100 is complete control
# [14] = Preemergence, 125 g ai/ha, 0 to 100 scale, 0 = no effect, 100 = complete control
# [15] = Preemergence, 500 g ai/ha, 0 to 100 scale, 0 = no effect, 100 = complete control
Compound,"Plant response rating, Foxtail, Giant [1, 13]","Foxtail, Giant plant response rating ([1]; Postemergence, 500 g ai/ha)","Plant response rating, Foxtail, Giant [1, 14]","Plant response rating, Foxtail, Giant [1, 15]","Plant response rating, Corn [2, 13]","Corn plant response rating ([2]; Postemergence, 500 g ai/ha)","Plant response rating, Corn [2, 14]","Plant response rating, Corn [2, 15]","Plant response rating, Velvetleaf [3, 13]","Velvetleaf plant response rating ([3]; Postemergence, 500 g ai/ha)","Plant response rating, Velvetleaf [3, 14]","Plant response rating, Velvetleaf [3, 15]","Plant response rating, Crabgrass, Large [4, 13]","Crabgrass, Large plant response rating ([4]; Postemergence, 500 g ai/ha)","Plant response rating, Crabgrass, Large [4, 14]","Plant response rating, Crabgrass, Large [4, 15]","Plant response rating, Wheat [5, 13]","Wheat plant response rating ([5]; Postemergence, 500 g ai/ha)","Plant response rating, Wheat [5, 14]","Plant response rating, Wheat [5, 15]",further results
Cc1cc(F)ccc1-n1c(-c2cccc(Br)c2)ncc(C(=O)C2=C(O)CCCC2=O)c1=O [Compound 166],60,90,0,20,30,40,0,0,100,100,40,100,40,90,10,70,0,0,0,0,"Plant response rating, Barnyardgrass [6, 13]: 80; Barnyardgrass plant response rating ([6]; Postemergence, 500 g ai/ha): 100; Plant response rating, Barnyardgrass [6, 14]: 0; Plant response rating, Barnyardgrass [6, 15]: 20; Plant response rating, Pigweed [7, 13]: 70; Pigweed plant response rating ([7]; Postemergence, 500 g ai/ha): 100; Plant response rating, Pigweed [7, 14]: 0; Plant response rating, Pigweed [7, 15]: 40; Plant response rating, Morningglory [8, 13]: 100; Plant response rating, Morningglory [8, 14]: 0; Plant response rating, Morningglory [8, 15]: 0; Plant response rating, Rice [9]: 0; Rice plant response rating [9]: 0; Plant response rating, Sedge, Umbrella [10]: 70; Sedge, Umbrella plant response rating [10]: 50; Plant response rating, Ducksalad [11]: 60; Ducksalad plant response rating [11]: 0; Plant response rating, Barnyardgrass [12]: 20; Barnyardgrass plant response rating [12]: 0"
COCCOCCn1c(-c2cc(F)cc(F)c2)ncc(C(=O)C2=C(O)CCCC2=O)c1=O [Compound 171],60,90,30,80,30,40,0,20,100,100,80,100,60,90,70,100,20,50,20,40,"Plant response rating, Barnyardgrass [6, 13]: 50; Barnyardgrass plant response rating ([6]; Postemergence, 500 g ai/ha): 90; Plant response rating, Barnyardgrass [6, 14]: 20; Plant response rating, Barnyardgrass [6, 15]: 70; Plant response rating, Pigweed [7, 13]: 100; Pigweed plant response rating ([7]; Postemergence, 500 g ai/ha): 100; Plant response rating, Pigweed [7, 14]: 50; Plant response rating, Pigweed [7, 15]: 80; Plant response rating, Morningglory [8, 13]: 100; Morningglory plant response rating ([8]; Postemergence, 500 g ai/ha, visual injury, 0 to 100 scale (0 no effect, 100 complete control), approx. ten days): 100; Plant response rating, Morningglory [8, 14]: 0; Plant response rating, Morningglory [8, 15]: 60; Plant response rating, Rice [9]: 0; Rice plant response rating [9]: 0; Plant response rating, Sedge, Umbrella [10]: 80; Sedge, Umbrella plant response rating [10]: 70; Plant response rating, Ducksalad [11]: 70; Ducksalad plant response rating [11]: 40; Plant response rating, Barnyardgrass [12]: 20; Barnyardgrass plant response rating [12]: 0"

# From patent publication US8952024B2, “Herbicidal pyrimidone derivatives” (E I du Pont de Nemours and Company, priority 2009, dated 2015)
